Assay results from patent US10377770B2 (Novartis AG, priority 2015, dated 2019).
pIC50: −log10 of the molar value.

target: C-Raf FL (full length CRAF with Y340E and Y341E activating mutations, co-expressed with h14-3-3 zeta) (Homo sapiens (Human), UniProt P04049, Y340E/Y341E); assay: In vitro Raf activity determination, AlphaScreen p-MEK readout, c-Raf (C-Raf FL); assay type: biochemical; details: c-Raf approximately 4 nM, ATP 1 μM, pre-incubation 60 minutes, reaction 1 hour
Outline: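 Full-length C-Raf (~4 nM) pre-incubated 60 min at room temperature with compound and kinase-dead biotinylated MEK1 (~10 nM) in Tris pH 7.5, 15 mM MgCl2, BSA, DTT. Reaction started with 1 μM ATP and run 1 h at room temperature. Phospho-MEK detected by AlphaScreen with anti-p-MEK antibody.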

C-Raf FL (full length CRAF with Y340E and Y341E activating mutations, co-expressed with h14-3-3 zeta), sequence (P04049 whole entry Y340E/Y341E): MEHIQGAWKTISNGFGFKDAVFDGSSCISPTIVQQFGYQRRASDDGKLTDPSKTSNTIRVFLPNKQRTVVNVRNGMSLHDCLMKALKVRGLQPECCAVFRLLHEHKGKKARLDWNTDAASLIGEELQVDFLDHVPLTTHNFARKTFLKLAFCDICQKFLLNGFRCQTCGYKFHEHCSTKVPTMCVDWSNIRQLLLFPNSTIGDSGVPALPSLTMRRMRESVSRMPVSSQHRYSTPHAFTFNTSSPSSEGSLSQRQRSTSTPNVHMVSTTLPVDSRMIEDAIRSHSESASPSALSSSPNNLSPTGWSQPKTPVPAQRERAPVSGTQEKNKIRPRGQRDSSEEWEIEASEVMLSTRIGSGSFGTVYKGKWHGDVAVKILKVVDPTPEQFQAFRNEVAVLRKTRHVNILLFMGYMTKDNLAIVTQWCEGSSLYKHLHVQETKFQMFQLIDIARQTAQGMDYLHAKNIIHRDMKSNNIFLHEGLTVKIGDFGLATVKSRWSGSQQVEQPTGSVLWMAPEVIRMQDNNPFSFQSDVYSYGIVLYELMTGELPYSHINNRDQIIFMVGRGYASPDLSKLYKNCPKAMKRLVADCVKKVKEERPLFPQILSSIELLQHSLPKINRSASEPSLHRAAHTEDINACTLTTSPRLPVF
C-Raf FL (full length CRAF with Y340E and Y341E activating mutations, co-expressed with h14-3-3 zeta), sequence (P63104 whole entry partner): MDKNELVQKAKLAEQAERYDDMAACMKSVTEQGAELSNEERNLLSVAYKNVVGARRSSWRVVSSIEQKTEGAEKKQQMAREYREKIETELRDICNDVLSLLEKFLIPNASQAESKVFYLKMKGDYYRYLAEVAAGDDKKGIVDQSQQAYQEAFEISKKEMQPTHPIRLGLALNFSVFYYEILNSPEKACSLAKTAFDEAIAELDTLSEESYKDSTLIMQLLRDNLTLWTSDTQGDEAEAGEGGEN

**Q.** How did the pIC50 turn out when CCN1C(=O)[C@H]2[C@@H]3COC[C@@H]3[C@H]2c2cc(-c3cc(NC(=O)c4ccnc(C(F)(F)F)c4F)ccc3C)cnc21 [Example 276, N-(3-((6aR, 6bR, 9aR, 9bR)-5-ethyl-6-oxo-5,6,6a,6b,7,9,9a,9b-octahydrofuro[3′,4′: 3,4]cyclobuta[1,2-c][1,8]naphthyridin-2-yl)-4-methylphenyl)-3-fluoro-2-(trifluoromethyl) isonicotinamide] was run?
**A.** Its pIC50 is 9.30.

**Q.** With CCN1C(=O)[C@H]2[C@@H]3COC[C@@H]3[C@H]2c2cc(-c3cc(NC(=O)c4cncc(C(F)(F)F)c4)ccc3C)cnc21 [Example 277, N-(3-((6aR, 6bR, 9aR, 9bR)-5-ethyl-6-oxo-5,6,6a,6b,7,9,9a,9b-octahydrofuro[3′,4′: 3,4]cyclobuta[1,2-c][1,8]naphthyridin-2-yl)-4-methylphenyl)-5-(trifluoromethyl) nicotinamide] as the compound, how does the pIC50 read?
**A.** The pIC50 was 10.00.

**Q.** How did the pIC50 turn out when Cc1ccc(NC(=O)c2ccnc(C(F)(F)F)c2)cc1-c1cnc2c(c1)C1C3COCC3C1C(=O)N2CCO (stereo not drawn) [Example 278, N-(3-(5-(2-hydroxyethyl)-6-oxo-5,6,6a,6b,7,9,9a,9b-octahydrofuro[3′,4′: 3,4]cyclobuta[1,2-c][1,8]naphthyridin 2-yl)-4-methylphenyl)-2-(trifluoromethyl) isonicotinamide] was run?
**A.** Its pIC50 is 9.52.

**Q.** With Cc1ccc(NC(=O)c2ccnc(C(C)(F)F)c2)cc1-c1cnc2c(c1)C1C3COCC3C1C(=O)N2CCO (stereo not drawn) [Example 279, 2-(1,1-difluoroethyl)-N-(3-(5-(2-hydroxyethyl)-6-oxo-5,6,6a,6b,7,9,9a,9b-octahydrofuro[3′,4′: 3,4]cyclobuta[1,2-c][1,8]naphthyridin-2-yl)-4-methylphenyl) isonicotinamide] as the compound, how does the pIC50 read?
**A.** The pIC50 was 9.40.

**Q.** Cc1ccc(NC(=O)c2ccnc(C(F)(F)F)c2F)cc1-c1cnc2c(c1)C1C3COCC3C1C(=O)N2CCO (stereo not drawn) [Example 280, 3-fluoro-N-(3-(5-(2-hydroxyethyl)-6-oxo-5,6,6a,6b,7,9,9a,9b-octahydrofuro[3′,4′: 3,4]cyclobuta[1,2-c][1,8]naphthyridin-2-yl)-4-methylphenyl)-2-(trifluoromethyl) isonicotinamide] was tested. Which pIC50 did it give?
**A.** Its pIC50 is 9.30.

**Q.** Cc1ccc(NC(=O)c2ccnc(C(F)(F)F)c2)cc1-c1cnc2c(c1)C1C3COCC3C1C(=O)N2CCO (stereo not drawn) [Example 281, N-(3-(5-(2-hydroxyethyl)-6-oxo-5,6,6a,6b,7,9,9a,9b-octahydrofuro[3′,4′: 3,4]cyclobuta[1,2-c][1,8]naphthyridin-2-yl)--4-methylphenyl)-2-(trifluoromethyl) isonicotinamide] was tested. Which pIC50 did it give?
**A.** Its pIC50 is 9.70.

**Q.** How did the pIC50 turn out when Cc1ccc(NC(=O)c2ccnc(C(F)(F)F)c2F)cc1-c1cnc2c(c1)C1C3COCC3C1C(=O)N2CCO (stereo not drawn) [Example 283, 3-fluoro-N-(3-(5-(2-hydroxyethyl)-6-oxo-5,6,6a,6b,7,9,9a,9b-octahydrofuro[3′,4′: 3,4]cyclobuta[1,2-c][1,8]naphthyridin-2-yl)-4-methylphenyl)-2-(trifluoromethyl)-2-isonicotinamide] was run?
**A.** The pIC50 was 9.70.

**Q.** Cc1ncc(NC(=O)c2cccc(C(F)(F)F)c2)cc1-c1cnc2c(c1)C1CCOCCC1C(=O)N2CCO (stereo not drawn) [Example 285, N-(5-(7-(2-hydroxyethyl)-6-oxo-1,2,4,5,5a,6,7,11b-octahydrooxepino [4,5-c][1,8]naphthyridin-10-yl)-6-methylpyridin-3-yl)-3-(trifluoromethyl) benzamide] was tested. Which pIC50 did it give?
**A.** Its pIC50 is 10.00.

**Q.** How did the pIC50 turn out when Cc1ccc(NC(=O)c2ccnc(C(C)(F)F)c2)cc1-c1cnc2c(c1)[C@@H]1CCOC[C@H]1C(=O)N2CC(C)(C)O [Example 287, 2-(1,1-difluoroethyl)-N-(3-((4aS,10bR)-6-(2-hydroxy-2-methylpropyl)-5-oxo-2,4,4a,5,6,10b-hexahydro-1H-pyrano[3,4-c][1,8]naphthyridin-9-yl)-4-methylphenyl) isonicotinamide] was run?
**A.** Its pIC50 is 9.70.

**Q.** Cc1ccc(NC(=O)c2ccnc(C(F)(F)F)c2)cc1-c1cnc2c(c1)N1CCOC[C@H]1CC(=O)N2CC(C)(C)O [Example 288, (R)-N-(3-(7-(2-hydroxy-2-methylpropyl)-6-oxo-2,4,4a,5,6,7-hexahydro-1H-[1,4]oxazino[4,3-d]pyrido[2,3-b][1,4]diazepin-10-yl)-4-methylphenyl)-2-(trifluoromethyl) isonicotinamide] was tested. Which pIC50 did it give?
**A.** The pIC50 was 9.05.

**Q.** Cc1ccc(NC(=O)c2ccnc(C(C)(F)F)c2)cc1-c1cnc2c(c1)N1CCOC[C@H]1CC(=O)N2CC(C)(C)O [Example 289, (R)-2-(1,1-difluoroethyl)-N-(3-(7-(2-hydroxy-2-methylpropyl)-6-oxo-2,4,4a,5,6,7-hexahydro-1H-[1,4]oxazino[4,3-d]pyrido[2,3-b][1,4]diazepin-10-yl)-4-methylphenyl) isonicotinamide] was tested. Which pIC50 did it give?
**A.** Its pIC50 is 9.05.

**Q.** With Cc1ccc(NC(=O)c2ccnc(C(F)(F)F)c2F)cc1-c1cnc2c(c1)N1CCOC[C@H]1CC(=O)N2CC(C)(C)O [Example 290, (R)-3-fluoro-N-(3-(7-(2-hydroxy-2-methylpropyl)-6-oxo-2,4,4a,5,6,7-hexahydro-1H-[1,4]oxazino[4,3-d]pyrido[2,3-b][1,4]diazepin-10-yl)-4-methylphenyl)-2-(trifluoromethyl) isonicotinamide] as the compound, how does the pIC50 read?
**A.** Its pIC50 is 9.00.

**Q.** CCN1C[C@@H]2COCC[C@H]2c2cc(-c3cc(NC(=O)c4ccnc(C(F)(F)F)c4)ccc3C)cnc21 [Example 291, N-(3-((4aR, 10bR)-6-ethyl-2,4,4a,5,6,10b-hexahydro-1H-pyrano[3,4-c][1,8]naphthyridin-9-yl)-4-methylpheny)-2-(trifluoromethyl) isonicotinamide] was tested. Which pIC50 did it give?
**A.** Its pIC50 is 10.00.

**Q.** How did the pIC50 turn out when CCN1C[C@@H]2COCC[C@H]2c2cc(-c3cc(NC(=O)c4ccnc(C(C)(F)F)c4)ccc3C)cnc21 [Example 292, 2-(1,1-difluoroethyl)-N-(3-((4aR, 10bR)-6-ethyl-2,4,4a,5,6,10b-hexahydro-1H-pyrano[3,4-c][1,8]naphthyridin-9-yl)-4-methylphenyl) isonicotinamide] was run?
**A.** The pIC50 was 10.00.

**Q.** With CCN1C[C@@H]2COCC[C@H]2c2cc(-c3cc(NC(=O)c4ccnc(C(F)(F)F)c4F)ccc3C)cnc21 [Example 293, N-(3-((4aR, 10bR)-6-ethyl-2,4,4a,5,6,10b-hexahydro-1H-pyrano[3,4-c][1,8]naphthyridin-9-yl)-4-methylphenyl)-3-fluoro-2-(trifluoromethyl) isonicotinamide] as the compound, how does the pIC50 read?
**A.** Its pIC50 is 10.00.

**Q.** CCN1C[C@@H]2COCC[C@H]2c2cc(-c3cc(NC(=O)c4cccc(C(F)(F)F)c4F)cnc3C)cnc21 [Example 294, N-(5-((4aR, 10bR)-6-ethyl-2,4,4a,5,6,10b-hexahydro-1H-pyrano[3,4-c][1,8]naphthyridin-9-yl)-6-methylpyridin-3-yl)-2-fluoro-3-(trifluoromethyl) benzamide] was tested. Which pIC50 did it give?
**A.** Its pIC50 is 10.00.

**Q.** How did the pIC50 turn out when CCN1C[C@@H]2COCC[C@H]2c2cc(-c3cc(NC(=O)c4cccc(C(F)(F)F)c4)cnc3C)cnc21 [Example 295, N-(5-((4aR, 10bR)-6-ethyl-2,4,4a,5,6,10b-hexahydro-1H-pyrano[3,4-c][1,8]naphthyridin-9-yl)-6-methylpyridin-3-yl)-3-(trifluoromethyl) benzamide] was run?
**A.** The pIC50 was 10.00.

**Q.** With CCN1C(=O)OC2COCCC2c2cc(-c3cc(NC(=O)c4cccc(C(F)(F)F)c4)cnc3C)cnc21 [Example 296, N-(5-((4aS,11bR- cis)-7-ethyl-6-oxo-2,4,4a,6,7,11b-hexahydro-1H-pyrano[4,3-f]pyrido[2,3-d][1,3]oxazepin-10-yl)-6-methylpyridin-3-yl)-3-(trifluoromethyl) benzamide] as the compound, how does the pIC50 read?
**A.** Its pIC50 is 8.74.

**Q.** CCN1C(=O)OC2COCCC2c2cc(-c3cc(NC(=O)c4ccnc(C(F)(F)F)c4)ccc3C)cnc21 [Example 297, N-(3-((4aS,11bR- cis)7-ethyl-6-oxo-2,4,4a,6,7,11b-hexahydro-1H-pyrano[4,3-f]pyrido[2,3-d][1,3]oxazepin-10-yl)-4-methylphenyl)-2-(trifluoromethyl) isonicotinamide] was tested. Which pIC50 did it give?
**A.** The pIC50 was 9.70.

**Q.** With CCN1C(=O)OC2COCCC2c2cc(-c3cc(NC(=O)c4cccc(C(F)(F)F)c4)cnc3C)cnc21 [Example 298, N-(5-((4aS,11bR- cis)-7-ethyl-6-oxo-2,4,4a,6,7,11b-hexahydro-1H-pyrano[4,3-f]pyrido[2,3-d][1,3]oxazepin-10-yl)-6-methylpyridin-3-yl)-3-(trifluoromethyl) benzamide] as the compound, how does the pIC50 read?
**A.** The pIC50 was 9.52.

**Q.** How did the pIC50 turn out when CCN1C(=O)OC2COCCC2c2cc(-c3cc(NC(=O)c4ccnc(C(F)(F)F)c4F)ccc3C)cnc21 [Example 299, N-(3-((4aS,11bR- cis)-7-ethyl-6-oxo-2,4,4a,6,7,11b-hexahydro-1H-pyrano[4,3-f]pyrido[2,3-d][1,3]oxazepin-10-yl)-4-methylphenyl)-3-fluoro-2-(trifluoromethyl) isonicotinamide] was run?
**A.** The pIC50 was 10.00.

**Q.** With CCN1C(=O)OC2COCCC2c2cc(-c3cc(NC(=O)c4cccc(C(F)(F)F)c4F)cnc3C)cnc21 [Example 300, N-(5-((4aS,11bR- cis)-7-ethyl-6-oxo-2,4,4a,6,7,11b-hexahydro-1H-pyrano[4,3-f]pyrido[2,3-d][1,3]oxazepin-10-yl)-6-methylpyridin-3-yl)-2-fluoro-3-(trifluoromethyl) benzamide] as the compound, how does the pIC50 read?
**A.** Its pIC50 is 9.70.

**Q.** How did the pIC50 turn out when CCN1C(=O)OC2COCCC2c2cc(-c3cc(NC(=O)c4ccnc(C(C)(F)F)c4)ccc3C)cnc21 [Example 302, 2-(1,1-difluoroethyl)-N-(3-((4aS,11bR-cis)-7-ethyl-6-oxo-2,4,4a,6,7,11b-hexahydro-1H-pyrano[4,3-f]pyrido[2,3-d][1,3]oxazepin-10-yl)-methylphenyl) isonicotinamide] was run?
**A.** Its pIC50 is 10.00.

**Q.** CCN1C(=O)[C@@H]2COCC[C@H]2c2cc(-c3cc(NC(=O)c4cncc(C(F)(F)F)c4)ccc3C)cnc21 [Example 303, N-(3-((4aS,10bR)-6-ethyl-5-oxo-2,4,4a,5,6,10b-hexahydro-1H-pyrano[3,4-c][1,8]naphthyridin-9-yl)-4-methylphenyl)-5-(trifluoromethyl) nicotinamide] was tested. Which pIC50 did it give?
**A.** The pIC50 was 10.00.
